Experimental data: patent publication US20130039928A1, “COMPOSITIONS AND METHODS FOR REVERSING CORTICOSTEROID RESISTANCE OR TREATING RESPIRATORY INFECTIONS” (priority 2010, published 2013)

System: Pseudomonas aeruginosa
Experiment: Bacterial clearance by THP-1 macrophages
Format: cell-based
Details: after exposure with Poly(I) (10 μg/ml)
Text: The above data collectively indicate that the activation of Nrf2 improves bacterial phagocytosis and clearance by COPD macrophages. The dependence of Nrf2 on bacterial phagocytosis was investigated. […] This observations confirmed Nrf2-dependent modulation of bacterial phagocytosis and clearance. To determine the mechanisms by which Nrf2 regulates phagocytosis, microarray analysis was employed. […] To address whether sulforaphane-induced expression of MARCO correlates with bacterial clearance, differentiated human THP-1 macrophages were used. Bacterial clearance by sulforaphane treated THP-1 macrophages after exposure with polyinosinic acid (Poly(I)) was analyzed. Poly(I) is a non-selective class A scavenger receptor blocker that inhibits MARCO mediated bacterial uptake and clearance (G. M. DeLoid, T. H. Sulahian, A. Imrich, L. Kobzik, PLoS One 4, e6209 (2009)). […] Next, phagocytosis of FITC-Pseudomonas aeruginosa was examined in THP-1 macrophages with knockdown of MARCO using lentivirus-encoded shRNA (MARCO shRNA).
BMDM were isolated by culturing bone marrow cells in the presence of 10 ng/ml granulocyte-macrophage colony-stimulating factor (PeproTech) for 7 days. Murine macrophages were cultured in RPMI 1640 medium supplemented with 10% FBS and 1% penicillin-streptomycin. […]

Substance: polyinosinic acid [Poly(I)]
- bacterial clearance by sulforaphane treated THP-1 macrophages: significantly impaired sulforaphane ability to improve bacterial clearance
